Reference: the NIST ThermoML archive (doi:10.1016/j.fluid.2013.12.024)
± gives the expanded uncertainty stated by the source.

What was measured:
[1] = Crystal; DTA
[2] = Molar enthalpy of transition or fusion; details: Crystal; DSC

O=c1c(-c2ccc(O)cc2)coc2cc(O)ccc12 [daidzein]
Normal melting temperature [1]: 315.67 ± 0.5 °C
Molar enthalpy of transition or fusion [2]: 8.38 ± 0.234 kcal/mol
